Values quoted from earlier work in US20160300010A1, “METHOD AND SYSTEM FOR PREDICTING SELECTIVE CANCER DRUG TARGETS” (RAMOT AT TEL-AVIV UNIVERSITY LTD., priority 2011, published 2016).

System: human cancer cells
Conditions: previously shown

NC(Cn1ccc(=O)c(O)c1)C(=O)O (stereo not shown) [Mimosine]
effect on proliferation of human cancer cells: inhibit proliferation of human cancer cells
